± gives the expanded uncertainty stated by the source.
Tests used:
[1] = for viscosity / mass density: 101.33 kPa, Liquid; for viscosity: Falling or rolling sphere viscometry; for mass density: Vibrating tube method; for Normal melting temperature: Crystal
[2] = Molar enthalpy of transition or fusion; conditions: Crystal; DSC

**Q.** For `OCCOCCOCCO` [triethylene glycol], which viscosity ([1]; 293.2 K) is on record?
**A.** 48.32 ± 4.9 mPa·s

**Q.** What about the mass density ([1]; 293.2 K) of the same compound?
**A.** 1123.1 ± 1.1 kg/m3

**Q.** And the viscosity ([1]; 298.2 K)?
**A.** 37.16 ± 3.8 mPa·s

**Q.** What about the mass density ([1]; 298.2 K) of the same compound?
**A.** 1119.2 ± 1.1 kg/m3

**Q.** What about the viscosity ([1]; 303.2 K) of the same compound?
**A.** 29.27 ± 2.9 mPa·s

**Q.** And the mass density ([1]; 303.2 K)?
**A.** 1115.4 ± 1.1 kg/m3

**Q.** And the viscosity ([1]; 308.2 K)?
**A.** 23.74 ± 2.4 mPa·s

**Q.** And the mass density ([1]; 308.2 K)?
**A.** 1111.5 ± 1.1 kg/m3

**Q.** What about the viscosity ([1]; 313.2 K) of the same compound?
**A.** 19.26 ± 1.9 mPa·s

**Q.** What about the mass density ([1]; 313.2 K) of the same compound?
**A.** 1107.6 ± 1.1 kg/m3

**Q.** What about the viscosity ([1]; 318.2 K) of the same compound?
**A.** 16.41 ± 1.6 mPa·s

**Q.** What about the mass density ([1]; 318.2 K) of the same compound?
**A.** 1103.8 ± 1.1 kg/m3

**Q.** And the viscosity ([1]; 323.2 K)?
**A.** 13.51 ± 1.4 mPa·s

**Q.** What about the mass density ([1]; 323.2 K) of the same compound?
**A.** 1099.9 ± 1.1 kg/m3

**Q.** And the viscosity ([1]; 328.2 K)?
**A.** 11.35 ± 1.1 mPa·s

**Q.** And the mass density ([1]; 328.2 K)?
**A.** 1096 ± 1.1 kg/m3

**Q.** And the viscosity ([1]; 333.2 K)?
**A.** 9.602 ± 0.97 mPa·s

**Q.** What about the mass density ([1]; 333.2 K) of the same compound?
**A.** 1092.1 ± 1.1 kg/m3

**Q.** And the viscosity ([1]; 338.2 K)?
**A.** 8.278 ± 0.83 mPa·s

**Q.** And the mass density ([1]; 338.2 K)?
**A.** 1088.2 ± 1.1 kg/m3

**Q.** What about the viscosity ([1]; 343.2 K) of the same compound?
**A.** 7.351 ± 0.74 mPa·s

**Q.** And the mass density ([1]; 343.2 K)?
**A.** 1084.3 ± 1 kg/m3

**Q.** With `CCCCn1cc[n+](C)c1.[Br-]` [1-butyl-3-methylimidazolium bromide] as the compound, how does the Normal melting temperature ([1]; visual observation) read?
**A.** 79.0 ± 1.1 °C

**Q.** Which viscosity ([1]; 308.2 K) does the source give for `O=S1(=O)CCCC1` [sulfolane] here?
**A.** 9.194 ± 0.92 mPa·s

**Q.** What about the mass density ([1]; 308.2 K) of the same compound?
**A.** 1257.4 ± 1.1 kg/m3

**Q.** And the viscosity ([1]; 313.2 K)?
**A.** 8.116 ± 0.82 mPa·s

**Q.** And the mass density ([1]; 313.2 K)?
**A.** 1253 ± 1.1 kg/m3

**Q.** And the viscosity ([1]; 318.2 K)?
**A.** 7.201 ± 0.72 mPa·s

**Q.** And the mass density ([1]; 318.2 K)?
**A.** 1248.6 ± 1.1 kg/m3

**Q.** What about the viscosity ([1]; 323.2 K) of the same compound?
**A.** 6.439 ± 0.65 mPa·s

**Q.** What about the mass density ([1]; 323.2 K) of the same compound?
**A.** 1244.2 ± 1.1 kg/m3

**Q.** What about the viscosity ([1]; 328.2 K) of the same compound?
**A.** 5.772 ± 0.58 mPa·s

**Q.** And the mass density ([1]; 328.2 K)?
**A.** 1239.8 ± 1.1 kg/m3

**Q.** And the viscosity ([1]; 333.2 K)?
**A.** 5.199 ± 0.52 mPa·s

**Q.** And the mass density ([1]; 333.2 K)?
**A.** 1235.5 ± 1.1 kg/m3

**Q.** And the viscosity ([1]; 338.2 K)?
**A.** 4.714 ± 0.47 mPa·s

**Q.** What about the mass density ([1]; 338.2 K) of the same compound?
**A.** 1231.1 ± 1.1 kg/m3

**Q.** What about the viscosity ([1]; 343.2 K) of the same compound?
**A.** 4.268 ± 0.43 mPa·s

**Q.** And the mass density ([1]; 343.2 K)?
**A.** 1226.7 ± 1.1 kg/m3

**Q.** With `CC[N+]1(C)CCOCC1.[Br-]` [N-ethyl-N-methylmorpholinium bromide] as the compound, how does the Normal melting temperature ([1]; DTA) read?
**A.** 172.5 ± 5.1 °C

**Q.** And the “Molar enthalpy of transition or fusion” value [2]?
**A.** 3.99 ± 0.263 kcal/mol

**Q.** Which results are given for `OCCOCCO` [diethylene glycol]?
**A.** viscosity ([1]; 293.2 K): 38.11 ± 3.8 mPa·s; mass density ([1]; 293.2 K): 1116.4 ± 1.1 kg/m3; viscosity ([1]; 298.2 K): 29.82 ± 3 mPa·s; mass density ([1]; 298.2 K): 1112.8 ± 1.1 kg/m3; viscosity ([1]; 303.2 K): 23.64 ± 2.4 mPa·s; mass density ([1]; 303.2 K): 1109.2 ± 1.1 kg/m3; viscosity ([1]; 308.2 K): 19.02 ± 1.9 mPa·s; mass density ([1]; 308.2 K): 1105.7 ± 1.1 kg/m3; viscosity ([1]; 313.2 K): 15.6 ± 1.6 mPa·s; mass density ([1]; 313.2 K): 1102.1 ± 1.1 kg/m3; viscosity ([1]; 318.2 K): 12.69 ± 1.3 mPa·s; mass density ([1]; 318.2 K): 1098.5 ± 1.1 kg/m3; viscosity ([1]; 323.2 K): 10.62 ± 1.1 mPa·s; mass density ([1]; 323.2 K): 1094.8 ± 1 kg/m3; viscosity ([1]; 328.2 K): 8.853 ± 0.89 mPa·s; mass density ([1]; 328.2 K): 1091.2 ± 1 kg/m3; viscosity ([1]; 333.2 K): 7.362 ± 0.74 mPa·s; mass density ([1]; 333.2 K): 1087.5 ± 1 kg/m3; viscosity ([1]; 338.2 K): 6.208 ± 0.62 mPa·s; mass density ([1]; 338.2 K): 1083.8 ± 1 kg/m3; viscosity ([1]; 343.2 K): 5.324 ± 0.54 mPa·s; mass density ([1]; 343.2 K): 1080.1 ± 1 kg/m3

**Q.** What does the source list for `CCCC[N+]1(C)CCOCC1.[Br-]` [4-butyl-4-methylmorpholinium bromide]?
**A.** Normal melting temperature ([1]; DTA): 211.1 ± 1.1 °C; Molar enthalpy of transition or fusion [2]: 3.54 ± 0.263 kcal/mol
